Experimental data taken from US9598387B2 (Southern Research Institute, priority 2012, dated 2017).

Assays:
[1] = molecular target: human D2-long dopamine receptor (Homo sapiens (Human), UniProt P14416); assay: Radioligand binding (125I-IABN competition), D2; conditions: HEK cell membranes expressing human D2-long
Protocol: (§1) The affinities of the target compounds were determined using radioligand binding experiments. […] Competition curves were modeled for a single site. Data from competition dose-response curves were analyzed using Tablecurve program (Jandel). IC50 values were converted to equilibrium dissociation constants (Ki values) using the Cheng and Prusoff correction.

human D2 receptors = human D2 receptors (Homo sapiens (Human), UniProt P14416); assay: D2 Mitogenesis Functional Assay (3H-thymidine uptake, CHOp-D2 cells); type: cell-based; conditions: for Emax at 10 µM: % maximum stimulation vs quinpirole (100%), read-out: D2 Agonist Emax; for Emax at 10 µM / D2 Antagonist Imax: at 10 μM; for D2 Antagonist Imax: inhibition of quinpirole stimulation of mitogenesis; for IC50: read-out: D2 Antagonist IC50
Protocol: (§2) These assays are based on ^3H-thymidine uptake by cells that are proliferating.
CHO cells expressing human D2 receptors (CHOp-D2 cells) were maintained in alpha-MEM with 10% FCS, 0.05% pen-strep, and 200 μg/mL of G418. […] The cells were incubated at 37° C. in alpha-MEM with 10% FCS. After 48-72 hours, the cells were rinsed twice with serum-free alpha-MEM and incubated for 24 hours at 37° C. Serial dilutions of test compounds were made by the Biomek robotics system in serum-free alpha-MEM. In the functional assay for agonism, the medium was removed and replaced with 100 μL of test compound in serum-free alpha-MEM. In the antagonist assay, the serial dilution of the putative antagonist test compound was added in 90 μL (1.1× of final concentration) and 300 nM quinpirole (30 nM final) was added in […]. After another 24-hour incubation at 37° C., 0.25 μCi of [^3H]thymidine in alpha-MEM supplemented with 10% FCS was added to each well and the plates were further incubated for 2 hours at 37° C. The cells were trypsinized by addition of 10× trypsin solution (1% trypsin in calcium-magnesium-free phosphate-buffered saline) and the plates were filtered and counted as usual. Quinpirole was run as an internal control and dopamine was included for comparative purposes. Butaclamol was run as the standard antagonist.

D3R [2] = molecular target: T1, D3R (Homo sapiens (Human), UniProt P35462); assay: D3 Mitogenesis Functional Assay (3H-thymidine uptake, CHOp-D3 cells); type: cell-based; conditions: for Emax at 10 µM: % maximum stimulation vs quinpirole (100%), read-out: D3 Agonist Emax; for D3 Antagonist Imax: inhibition of quinpirole stimulation of mitogenesis; for IC50: read-out: D3 Antagonist IC50; for EC50: CHOp-D3 cells, stimulation of mitogenesis, read-out: D3 Agonist EC50
Protocol: as §2
CHO cells expressing human D3 receptors (CHOp-D3 cells) were maintained in alpha-MEM with 10% fetal bovine serum (FBS, Atlas Biologicals), 0.05% pen-strep, and 200 μg/ml of G418. […] The cells are incubated at 37° C. in alpha-MEM with 10% FBS. After 48-72 hours, the cells are rinsed twice with serum-free alpha-MEM and incubated for 24 hours at 37° C. Serial dilutions of test compounds were made by the Biomek robotics system in serum-free alpha-MEM. In the functional assay for agonism, the medium is removed and replaced with 100 μL of test compound in serum-free alpha-MEM. In the antagonist assay, the serial dilution of the putative antagonist test compound was added in 90 μL (1.1× of final concentration) and 300 nM quinpirole (30 nM final) was added in 10 uL. After another 16-hour incubation at 37° C., 0.25 μCi of [^3H]thymidine in alpha-MEM supplemented with 10% FBS was added to each well and the plates were further incubated for 2 hours at 37° C. The cells were trypsinized by addition of 10× trypsin solution (1% trypsin in calcium-magnesium-free phosphate-buffered saline) and the plates were filtered and counted as usual. Quinpirole was run as an internal control and dopamine was included for comparative purposes. Butaclamol was run as the standard antagonist. Data were analyzed using GraphPAD Prism and agonist potency was expressed as EC50 values or % stimulation and antagonist potency was expressed as IC50 values. In these assays, based on the % maximum stimulation as compared to the standard agonist quinpirole (100%) the compounds were classified into following categories: ≧90% full agonist; 70-90% partial to full agonist; <70% partial agonist; 0-20% potential antagonist.

[3] = molecular target: human D2 dopamine receptors (Homo sapiens (Human), UniProt P14416); assay: Whole Cell Adenylyl Cyclase Assay, D2; type: cell-based; conditions: inhibition of forskolin (100 μM) stimulated cAMP, normalized to quinpirole; compound conc ≥10× Ki (per compound); mean ± S.E.M.
Protocol: (§3) The intrinsic activity of the compounds was evaluated by determining their ability to inhibit forskolin-dependent (100 μM) stimulation of adenylyl cyclase activity using a whole cell assay. A whole cell-cyclic AMP accumulation assay was performed with stably transfected HEK cells expressing human D2 or D3 dopamine receptors. This assay is an adaptation of an earlier published method (Su et al., Cyclic Nucleotide Res. 1976, 2, 257-285). Details regarding this method have been published (Chu, W. et al. Bioorg. Med. Chem. 2005, 13, 77-87; Taylor, M. et al. Synapse 2010, 64, 251-266). Confluent (60-80%) HEK cells transfected with recombinant D2-like dopamine receptors were grown in DMEM/10% fetal calf serum containing geneticin in […] flasks. The endogenous ATP pool is radioactively labeled by preincubating the cells in serum-free DMEM/25 mM Hepes medium containing 2 μCi/mL of [2,8-^3H]-adenine (20-Ci/mmol) in a 5% CO2 incubator at 37° C. for 75 min. The radioactive medium was removed by aspiration. Serum-free DMEM (5.6 mL) containing 25 mM HEPES, pH 7.4, and 0.1 mM of the phosphodiesterase inhibitor isobutylmethylxanthine was added to the flask. A […] aliquot of cells was removed and added to 50 μL of forskolin (100 μM) and 50 μL of test drug or quinpirole in DMEM-HEPES. The cells were incubated for 20 min at 37° C. (vortexing every 5 min). The reaction was terminated by the addition of 0.5 mL of 10% trichloroacetic acid (w/v) containing 1.0 mM unlabeled cyclic AMP as a recovery standard. Both the [^3H]-cyclic AMP and the [^3H]-ATP fractions were collected following separation using columns of Dowex AG-50W-X4 and alumina. The final yield of [^3H]-cyclic AMP is corrected for column recovery of unlabeled cyclic AMP determined spectrophotometrically (OD259). The results are reported as percent conversion of [^3H]-ATP into [^3H]-cyclic AMP. The values for the percent inhibition are reported as the actual percent of inhibition of the ^3H-cAMP accumulation relative to the assay performed in the absence of a test compound, minus basal activity. […] The percent maximum response is the value for the inhibition normalized to the value for the full agonist quinpirole.

[4] = molecular target: T2, human D3 dopamine receptor (Homo sapiens (Human), UniProt P35462); assay: Whole Cell Adenylyl Cyclase Assay, D3; type: cell-based; conditions: inhibition of forskolin (100 μM) stimulated cAMP, normalized to quinpirole; compound conc ≥10× Ki (per compound); mean ± S.E.M.
Protocol: as §3

[5] = molecular target: T2, human D3 dopamine receptor; assay: Radioligand binding (125I-IABN competition), D3; conditions: for Ki: 125I-IABN competition, HEK cell membranes expressing human D3; for D2/D3 (D3 selectivity ratio, D2 Ki/D3 Ki): calculated D2 Ki/D3 Ki
Protocol: as §1

D3R [6] = molecular target: T1, D3R; assay: β-Arrestin Recruitment Assay, U2OS DRD3; type: cell-based; conditions: for IC50: antagonist vs EC80 8 nM PD128907, U2OS DRD3 cells, read-out: D3 IC50; for D2 IC50/D3 IC50: ratio of β-arrestin IC50 values
Protocol: (§4) Antagonist potency of the compounds against agonist induced recruitment of β-arrestin by D3R and D2LR was measured using DiscoverRx PathHunter eXpress kits. […] After incubation at 37° C. for 90 min, the DiscoveRx detection reagent was added, the plates were incubated at room temperature for 60 min and the luminescence was measured on a Synergy 4 plate reader (BioTek). The data were plotted and the agonist EC80 values were calculated using GraphPad Prism software. For antagonist activity, the cells were plated as described above and treated with multiple concentrations (starting from 500 nM, half log dilution, 10 dose points) of the test compounds in Plating Reagent with 0.1% DMSO.

D2LR = D2LR (Homo sapiens (Human), UniProt P14416); assay: β-Arrestin Recruitment Assay, CHO-K1 DRD2L; type: cell-based; conditions: antagonist vs EC80 6 nM Pergolide, CHO-K1 DRD2L cells; read-out: D2 IC50
Protocol: as §4

Sequence of D2LR (P14416 whole entry): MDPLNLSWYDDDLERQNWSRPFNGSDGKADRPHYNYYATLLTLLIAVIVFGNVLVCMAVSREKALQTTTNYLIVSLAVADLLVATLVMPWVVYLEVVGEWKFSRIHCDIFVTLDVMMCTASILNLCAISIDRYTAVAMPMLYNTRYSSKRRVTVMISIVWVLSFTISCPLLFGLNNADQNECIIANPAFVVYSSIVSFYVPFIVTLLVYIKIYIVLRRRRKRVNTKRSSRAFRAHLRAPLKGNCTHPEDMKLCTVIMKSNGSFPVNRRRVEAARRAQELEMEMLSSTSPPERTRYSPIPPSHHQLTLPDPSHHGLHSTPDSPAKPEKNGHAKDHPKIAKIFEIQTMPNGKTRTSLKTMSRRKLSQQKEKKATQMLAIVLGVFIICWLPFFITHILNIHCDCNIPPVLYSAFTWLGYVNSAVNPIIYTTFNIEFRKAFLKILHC
Sequence of human D2-long dopamine receptor (P14416 whole entry): as above
Sequence of human D2 receptors (P14416 whole entry): as above
Sequence of human D2 dopamine receptors (P14416 whole entry): as above
T2 sequence (P35462 whole entry): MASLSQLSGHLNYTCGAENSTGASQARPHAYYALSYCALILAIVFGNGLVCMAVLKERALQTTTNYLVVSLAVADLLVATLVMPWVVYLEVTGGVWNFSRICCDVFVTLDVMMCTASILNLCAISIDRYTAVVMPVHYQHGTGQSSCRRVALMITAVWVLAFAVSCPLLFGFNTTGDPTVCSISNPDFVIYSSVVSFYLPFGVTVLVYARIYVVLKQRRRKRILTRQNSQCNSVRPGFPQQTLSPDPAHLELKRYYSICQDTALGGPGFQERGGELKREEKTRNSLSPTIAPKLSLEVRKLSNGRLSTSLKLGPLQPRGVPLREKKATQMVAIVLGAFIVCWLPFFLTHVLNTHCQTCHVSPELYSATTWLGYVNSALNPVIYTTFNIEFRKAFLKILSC
T1 sequence (P35462 whole entry): as above

SMILES | Ki [1] [nM] | Emax at 10 µM (human D2 receptors) [%] | D2 Antagonist Imax (human D2 receptors) [% at 10 μM] | IC50 (human D2 receptors) [nM] | Emax at 10 µM (D3R [2]) [%] | D3 Antagonist Imax (D3R [2]) [%] | IC50 (D3R [2]) [nM] | D2 Cyclase % Inhibition Normalized [3] [%] | D3 Cyclase % Inhibition Normalized [4] [%] | Ki [5] [nM] | D2/D3 (D3 selectivity ratio, D2 Ki/D3 Ki) [5] | EC50 (human D2 receptors; CHOp-D2 cells, stimulation of mitogenesis, read-out: D2 Agonist EC50) [nM] | EC50 (D3R [2]) [nM] | IC50 (D3R [6]) [nM] | D2 IC50/D3 IC50 (D3R [6]) | IC50 (D2LR) [nM]
O=C(NCCCCN1CCN(c2cccc(Cl)c2Cl)CC1)N1CCN(c2ccccc2)CC1 [Compound 3, N-(4-(4-(2,3-Dichlorophenyl)piperazin-1-yl)butyl)-4-phenylpiperazine-1-carboxamide] | 21 ± 2.4 | < 20 | 91.0 | 14.6 ± 5.5 | < 20 | 93.1 | 3.43 ± 0.29 | 61.0 ± 4.5 | 66.4 ± 16.4 | 0.39 ± 0.1 | 54 |  |  |  |  | 
CC(C)(C)c1nc(N2CCN(CCCCNC(=O)N3CCN(c4ccccn4)CC3)CC2)cc(C(F)(F)F)n1 [Compound 29, N-(4-(4-(2-(tert-Butyl)-6-(trifluoromethyl)pyrimidin-4-yl)piperazin-1-yl)butyl)-4-(pyridin-2-yl)piperazine-1-carboxamide] | 740 ± 98.3 | < 1 | 99.9 | 232 ± 61 | < 5 | 83.8 | 54.7 ± 9.4 | 21.8 ± 6.6 | 60.9 ± 4.0 | 8 ± 1.6 | 92 | > 10000 | > 10000 |  |  | 
CC(C)(C)c1nc(N2CCN(CCCCNC(=O)N3Cc4ccccc4C3)CC2)cc(C(F)(F)F)n1 [Compound 39, N-(4-(4-(2-(tert-Butyl)-6-(trifluoromethyl)pyrimidin-4-yl)piperazin-1-yl)butyl)isoindoline-2-carboxamide] | 778 ± 29.5 |  |  |  |  |  |  | −24.0 ± 7.0 | 19.8 ± 6.7 | 12.2 ± 2 | 64 |  |  |  |  | 
CC(C)(C)c1nc(N2CCN(CCCCNC(=O)N3CCC(c4ccccc4)CC3)CC2)cc(C(F)(F)F)n1 [Compound 48, N-(4-(4-(2-(tert-Butyl)-6-(trifluoromethyl)pyrimidin-4-yl)piperazin-1-yl)butyl)-4-phenylpiperidine-1-carboxamide] | 1620 ± 402 |  |  |  | < 5 | 81.2 | 2000 ± 480 |  | 64.3 ± 10.4 | 11 ± 2.4 | 147 |  | > 10000 | 28.1 ± 4.9 | >18 | > 500
Cc1cc(N2CCN(CCCCNC(=O)N3CCC(n4c(=O)[nH]c5ccccc54)CC3)CC2)nc(C(C)(C)C)n1 [Compound 52, N-(4-(4-(2-(tert-Butyl)-6-methylpyrimidin-4-yl)piperazin-1-yl)butyl)-4-(2-oxo-2,3-dihydro-1H-benzo[d]imidazol-1-yl)piperidine-1-carboxamide] | 680 ± 135 |  |  |  |  |  |  | −5.9 ± 5.4 | 11.6 ± 3.1 | 7.3 ± 1.6 | 93 |  |  |  |  | 
O=C(NCCCCN1CCN(c2ccnc3ccccc23)CC1)C1CCC(c2ccccc2)CC1 (stereo not shown) [Compound 104, 4-Phenyl-N-(4-(4-(quinolin-4-yl)piperazin-1-yl)butyl)cyclohexanecarboxamide] | 5160 ± 822 |  |  |  |  |  |  |  | 53.4 ± 13.0 | 35.3 ± 4.8 | 146 |  |  | 33.7 ± 14.3 | >15 | > 500
CN(C)Cc1cccc2nc(C(=O)NCCCCN3CCN(c4cc(C(F)(F)F)nc(C(C)(C)C)n4)CC3)cn12 [Compound 121, N-(4-(4-(2-(tert-Butyl)-6-(trifluoromethyl)pyrimidin-4-yl)piperazin-1-yl)butyl)-5-((dimethylamino)methyl)imidazo[1,2-a]pyridine-2-carboxamide] | 298 |  |  |  |  |  |  |  |  | 27.3 ± 3.4 | 11 |  |  | 28.8 ± 2.7 | 10 | 281 ± 43
